Positions count from the first letter of the chain named.

The values below come from paper doi:10.1101/2025.07.18.665579v1 (biorxiv, 2025).

Common to all, as to test: microscale thermophoresis
What all share (format): binding

The target in assay [1] is SbXAT (Sb3G094600) (Sorghum bicolor, UniProt A0A1B6Q2C2, F596Y).
The target in assay [2] is T1, SbXXT (Sb2G401600) (Sorghum bicolor, UniProt C5X460).
T1 sequence (C5X460 93-554): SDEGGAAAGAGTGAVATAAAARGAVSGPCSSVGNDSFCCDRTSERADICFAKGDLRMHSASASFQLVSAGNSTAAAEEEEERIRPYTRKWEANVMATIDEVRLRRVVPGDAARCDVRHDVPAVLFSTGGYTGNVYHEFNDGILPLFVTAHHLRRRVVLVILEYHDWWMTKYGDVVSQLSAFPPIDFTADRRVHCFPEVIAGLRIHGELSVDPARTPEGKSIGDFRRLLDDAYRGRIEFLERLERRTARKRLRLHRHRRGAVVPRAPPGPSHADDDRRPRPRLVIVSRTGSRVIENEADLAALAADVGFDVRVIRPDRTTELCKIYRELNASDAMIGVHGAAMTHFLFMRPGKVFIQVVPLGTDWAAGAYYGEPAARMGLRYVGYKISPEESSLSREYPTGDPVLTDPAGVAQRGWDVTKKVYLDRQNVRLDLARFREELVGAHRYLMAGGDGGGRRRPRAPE

Assay [3] deals with T2, SbXXT (Sb2G401600) (Sorghum bicolor, UniProt C5X460, Y462F).
T2 sequence (C5X460 93-554 Y462F): T1 sequence (C5X460 93-554) with Y370F

Assay [4] has as its target SbXAT (Sb3G094600) (Sorghum bicolor, UniProt A0A1B6Q2C2).

Sequence of SbXAT (Sb3G094600) (Sorghum bicolor, UniProt A0A1B6Q2C2, F596Y) (A0A1B6Q2C2 198-685 F596Y): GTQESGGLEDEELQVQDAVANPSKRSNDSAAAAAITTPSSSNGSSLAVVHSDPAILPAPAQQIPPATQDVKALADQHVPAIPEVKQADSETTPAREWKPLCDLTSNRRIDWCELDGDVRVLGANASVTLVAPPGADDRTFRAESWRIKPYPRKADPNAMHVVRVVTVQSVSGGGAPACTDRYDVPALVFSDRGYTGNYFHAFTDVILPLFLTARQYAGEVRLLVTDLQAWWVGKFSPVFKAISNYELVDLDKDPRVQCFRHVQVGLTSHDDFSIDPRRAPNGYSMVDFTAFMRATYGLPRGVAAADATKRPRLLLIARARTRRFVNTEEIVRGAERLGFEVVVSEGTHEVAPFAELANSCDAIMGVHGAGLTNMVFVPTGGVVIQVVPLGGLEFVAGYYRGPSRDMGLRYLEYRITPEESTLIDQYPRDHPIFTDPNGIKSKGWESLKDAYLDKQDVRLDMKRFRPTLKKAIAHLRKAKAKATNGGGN
Sequence of SbXAT (Sb3G094600) (Sorghum bicolor, UniProt A0A1B6Q2C2) (A0A1B6Q2C2 198-685): as the sequence (A0A1B6Q2C2 198-685 F596Y) above, with Y399F counted along it

As a reminder, the Kd is the constant that tells how readily two partners part at equilibrium. High values mean lower affinity, low ones higher affinity. `O=c1ccn([C@@H]2O[C@H](COP(=O)(O)OP(=O)(O)O[C@H]3O[C@@H](CO)[C@H](O)[C@H]3O)[C@@H](O)[C@H]2O)c(=O)[nH]1` [UDP-Araf]: the Kd at SbXAT (Sb3G094600) [1] turned out to be 531 µM; at SbXXT (Sb2G401600) [2], 26 µM; at SbXXT (Sb2G401600) [3] it was 19 µM; on SbXAT (Sb3G094600) [4] it was 244 µM.
Consider `O=c1ccn([C@@H]2O[C@H](COP(=O)(O)OP(=O)(O)O[C@H]3OC[C@@H](O)[C@H](O)[C@H]3O)[C@@H](O)[C@H]2O)c(=O)[nH]1` [UDP-Xyl], for which the Kd at SbXAT (Sb3G094600) [1] was 221 µM; at SbXXT (Sb2G401600) [2] it was 13 µM; at SbXXT (Sb2G401600) [3], 15 µM; at SbXAT (Sb3G094600) [4], 373 µM.
